Values quoted from earlier work, collected in patent US20240238452A1, “STAINING AGENT FOR GASTROINTESTINAL MUCOSA AND PREPARATION METHOD THEREFOR” (BEIJING COMPONT MEDICAL DEVICES CO., LTD., priority 2023, published 2024).

What was measured:
[1] = International Journal of Toxicology 2010
[2] = EFSA report 2009

| SMILES | safety: acute oral, short-term skin, subchronic skin, heredity and other aspects [1] | allowable daily intake (ADI) [2] |
| --- | --- | --- |
| Cc1ccc(Nc2ccc(O)c3c2C(=O)c2ccccc2C3=O)c(S(=O)(=O)[O-])c1.[Na+] [acid violet 43] | no abnormal report | – |
| COc1cc(S(=O)(=O)[O-])c(C)cc1N=Nc1c(O)ccc2cc(S(=O)(=O)[O-])ccc12.[Na+].[Na+] [allure red] | – | 7 mg/kg·bw/day |
| O=C1/C(=C2\Nc3ccc(S(=O)(=O)[O-])cc3C2=O)Nc2ccc(S(=O)(=O)[O-])cc21.[Na+].[Na+] [indigo carmine, reference compound] | – | 5 mg/kg·bw/day |
